The text below walks through data of US12679851B2, “Methyl-substituted benzobisoxazole compound and use thereof” (TONGHUA DONGBAO PHARMACEUTICAL CO., LTD., priority 2020, dated 2026).

Some results are limits rather than exact numbers.

One series addresses GLP-1 receptor (Homo sapiens, UniProt P43220). Briefly: Cell activity test in vitro (cAMP detection, GLP-1 HEK293 cells). The format is cell-based. The following applies: HEK293 host cell. Here is the method: The cells were constructed by Wuxi New Drug Development Co., Ltd. Shanghai.
The compound was formulated with DMSO to a working concentration of 30 μM. In this test, the usage amount of each sample was 5 μL.
The pH was adjusted to 7.4 and the volume was fixed to 25 mL with HBSS 1×.
Preparation of cAMP detection reagent: 250 μL of cAMP-D2 and 250 μL of anti-cAMP cryptate reagent were added to 4 mL of lysis buffer, and mixed gently.
The test compound was diluted 3 times by 10 points with a starting concentration of 30 μM, and the dilutions were completed by Bravo.
The reference compound exenatide was diluted 3 times by 10 points with a starting concentration of 500 nM, and the dilutions were completed by Bravo.
• 1) 100 nL of compound was transferred to OptiPlate-384 plate using Echo. • 2) OptiPlate-384 plate was centrifuged at 1000 rpm for 5 seconds. c) Preparation of cell suspension • 1) A GLP-1 cell cryopreservation tube was quickly thawed in 37° C. warm water. • 2) The cell suspension was transferred to a Transfer 15 mL of centrifuge tube and gently rinsed with 10 mL of HBSS. • 3) The centrifuge tube was centrifuged at 1000 rpm at room temperature for 1 minute. • 4) The supernatant was discarded. • 5) The cells at the bottom were gently dispersed and gently rinsed with 10 mL of HBSS, then the cells were centrifuged for sedimentation, and finally the cells were re-suspended in experimental buffer. • 6) Cell density and activity were measured by using Vi-cell. • 7) The concentration of GLP-1 cells was diluted to 2.0*10^5/mL with the experimental buffer. • 8) […] of diluted cell suspension was transferred into OptiPlate-384 plate. • 9) The cells were incubated at room temperature for 30 minutes. d) Addition of detection reagents: • 1) 10 μL of 800 nM gradient diluted cAMP standard was added to the empty well of OptiPlate-384 plate. • 2) 10 μL of cAMP detection reagent was added. • 3) OptiPlate-384 plate was covered with TopSeal-A film and incubated for 60 min at room temperature.
The TopSeal-A was removed, and the EnVision reading was performed.

Series [1] concerns the target T1, CYP2C19 (Homo sapiens, UniProt P33261).
T1 construct: human liver microsomes (HLM) were used as the incubation system; from tissue; host or cells: human liver microsomes
Briefly: Cytochrome P450 isoenzyme time-dependent inhibition, human liver microsomes. The format is in vitro ADME. How it is done:
To test the time-dependent inhibitory effect of the test compounds on the activity of human liver microsomal cytochrome P450 isoenzyme CYP2C19.
The experiment was divided into two groups. In the first group, human liver microsomes (HLM) were used as the incubation system, and a series of concentrations of test samples were added to the incubation system, and then coenzyme factor (NADPH) solution was added, and pre-incubated at 37° C. for 30 minutes. After pre-incubation, the probe substrate solution was added, and after incubation for a certain time, the reaction was terminated; the amount of probe substrate metabolites produced in the incubation solution was measured, and the enzyme activity was calculated. The second group of reactions was to use human liver microsomes (HLM) as the incubation system, and a series of concentrations of test samples were added to the incubation system, and then potassium phosphate buffer was added, and pre-incubated at 37° C. for 30 minutes. After pre-incubation, a mixed solution of NADPH and probe substrate was added. After incubation for a certain time, the reaction was terminated, the amount of probe substrate metabolites produced in the incubation solution was measured, and the enzyme activity was calculated.
Firstly, the test compound (10.0 mM) was diluted in gradient to prepare a working solution (100× final concentration), and the working solution concentrations were 5.00, 1.65, 0.500, 0.165, 0.0500, 0.0165 and 0.00500 mM respectively. At the same time, the positive inhibitor of P450 isoenzyme CYP2C19, probe substrate and NADPH working solution were prepared; the human liver microsomes stored in the refrigerator below −60° C. were thawed on ice. When the human liver microsomes were completely dissolved, then diluted with potassium phosphate buffer (PB) to prepare a working solution with a certain concentration (0.169 mg/mL).
Then 147.5 μL of human liver microsome working solution was added to the reaction plate, and the reaction plate was placed on ice for use. […]
(In general: Microsomes from liver hold many membrane-bound enzymes, among them those of drug oxidation.)

A further series has as its target T2, CYP2C9 (Homo sapiens, UniProt P11712).
T2 construct: from tissue; host or cells: human liver microsomes
Briefly: Cytochrome P450 isoenzyme inhibition, human liver microsomes. Format: in vitro ADME. Here is the method: (§1) To test the inhibitory effects of the test compounds on the activities of human liver microsomal cytochrome P450 isoenzymes (CYP1A2, CYP2C9, CYP2C19, CYP2D6 and CYP3A4).
(§2) Firstly, the test compound (10.0 mM) was diluted in gradient to prepare a working solution (100× final concentration), and the working solution concentrations were 5.00, 1.50, 0.500, 0.150, 0.0500, 0.0150 and 0.00500 mM respectively. At the same time, the working solution of each positive inhibitor and its specific substrate mixture of P450 isoenzymes (CYP1A2, CYP2C9, CYP2C19, CYP2D6 and CYP3A4) was prepared; the human liver microsomes stored in the refrigerator below −60° C. were thawed on ice. When the human liver microsomes were completely dissolved, then diluted with potassium phosphate buffer (PB) to prepare a working solution with a certain concentration (0.253 mg/mL).
(§3) Firstly, 20.0 μL of substrate mixture was added to the reaction plate (20.0 μL of PB was added to the blank well), then 158 μL of human liver microsome working solution was added to the reaction plate, and the reaction plate was placed on ice for later use. At this time, 2.00 μL of test compound (N=1) and specific inhibitor (N=2) of each concentration were added to the corresponding well, and the group without inhibitor (test compound or positive inhibitor) was added with the corresponding organic solvent as a of control sample (control sample of test compound was dimethyl sulfoxide:methanol=1:1, positive control samples were all dimethyl sulfoxide:methanol=1:9). After pre-incubation in 37° C. water bath for 10 minutes, 20.0 μL of a coenzyme factor (NADPH) solution was added to the reaction plate and incubated in 37° C. water bath for 10 minutes. Then 400 μL of pre-cooled acetonitrile solution (internal standard containing 200 ng/mL tolbutamide and labetalol) was added to stop the reaction; the reaction plate was placed in a shaker and shaken for 10 min to mix evenly. Then the reaction plate was centrifuged at 4° C. and 4000 rpm for 20 min. 200 μL of supernatant was taken and added to 100 μL of water for sample dilution. Finally, the plate was sealed, shaken for 10 minutes to mix evenly for LC/MS/MS detection.

A further series concerns the target T3, CYP3A4 (Homo sapiens, UniProt P08684).
T3 construct: from tissue; host or cells: human liver microsomes
The description is as above. The format is in vitro ADME. The following applies: CYP3A4-M. How it is done:
as §1, §2, §3

The target in a further series is T4, CYP1A2 (Homo sapiens, UniProt P05177).
T4 construct: from tissue; host or cells: human liver microsomes
T4 sequence (P05177 1-516): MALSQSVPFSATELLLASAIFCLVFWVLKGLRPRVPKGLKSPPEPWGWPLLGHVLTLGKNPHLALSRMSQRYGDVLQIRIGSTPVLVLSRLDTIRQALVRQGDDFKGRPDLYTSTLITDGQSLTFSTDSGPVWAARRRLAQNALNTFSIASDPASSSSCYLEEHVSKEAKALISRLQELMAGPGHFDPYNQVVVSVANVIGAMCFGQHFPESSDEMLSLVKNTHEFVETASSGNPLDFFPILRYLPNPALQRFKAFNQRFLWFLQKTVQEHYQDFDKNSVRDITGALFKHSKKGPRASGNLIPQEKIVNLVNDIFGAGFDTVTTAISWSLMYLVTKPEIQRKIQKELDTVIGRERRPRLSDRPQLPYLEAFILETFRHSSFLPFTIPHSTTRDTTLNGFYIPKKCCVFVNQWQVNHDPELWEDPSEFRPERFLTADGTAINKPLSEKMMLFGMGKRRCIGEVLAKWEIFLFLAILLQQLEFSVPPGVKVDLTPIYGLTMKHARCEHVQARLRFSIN
The description is as above. Format: in vitro ADME. Here is the method: as §1, §2, §3

The target in series [2] is T1, CYP2C19. The series is described as above. The format is in vitro ADME. How it is done:
as §1, §2, §3

The target of another series is T5, CYP2D6 (Homo sapiens, UniProt P10635).
T5 construct: from tissue; host or cells: human liver microsomes
T5 sequence (P10635 whole entry): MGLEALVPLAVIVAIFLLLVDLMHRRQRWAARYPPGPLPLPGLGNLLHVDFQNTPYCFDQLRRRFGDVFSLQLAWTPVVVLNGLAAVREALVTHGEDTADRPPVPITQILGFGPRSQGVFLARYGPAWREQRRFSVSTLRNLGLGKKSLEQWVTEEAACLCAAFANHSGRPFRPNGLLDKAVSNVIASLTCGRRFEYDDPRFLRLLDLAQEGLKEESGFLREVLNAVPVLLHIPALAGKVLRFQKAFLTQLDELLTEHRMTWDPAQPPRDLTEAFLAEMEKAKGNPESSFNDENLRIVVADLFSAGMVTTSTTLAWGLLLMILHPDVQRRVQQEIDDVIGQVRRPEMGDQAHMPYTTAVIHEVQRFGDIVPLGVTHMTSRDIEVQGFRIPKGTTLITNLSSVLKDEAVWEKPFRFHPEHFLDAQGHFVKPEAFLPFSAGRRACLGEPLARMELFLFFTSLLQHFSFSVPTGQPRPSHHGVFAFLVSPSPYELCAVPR
The series is described as above. Format: in vitro ADME. Here is the method: as §1, §2, §3

Series [3] in a line: Cynomolgus monkey in vivo DMPK study. The following applies: male cynomolgus monkeys, single oral 0.5 mg/kg. Here is the method:
Male cynomolgus monkeys were used as test animals, and the plasma concentration of the compound was determined after a single oral administration and the pharmacokinetic behavior was evaluated.
Two healthy male cynomolgus monkeys (fasting) were selected as the oral group. Oral vehicle was 20% hydroxypropyl-p-cyclodextrin aqueous solution. After the test compound was mixed with the vehicle, vortexed and sonicated to prepare 0.1 mg/mL approximately clear solution. The oral dosage of cynomolgus monkey was 0.5 mg/kg. After oral administration, whole blood was collected for a certain time to prepare plasma. The drug concentration was analyzed by LC-MS/MS method, and the pharmacokinetic parameters were calculated by Phoenix WinNonlin 6.3.

T2 sequence (P11712 whole entry): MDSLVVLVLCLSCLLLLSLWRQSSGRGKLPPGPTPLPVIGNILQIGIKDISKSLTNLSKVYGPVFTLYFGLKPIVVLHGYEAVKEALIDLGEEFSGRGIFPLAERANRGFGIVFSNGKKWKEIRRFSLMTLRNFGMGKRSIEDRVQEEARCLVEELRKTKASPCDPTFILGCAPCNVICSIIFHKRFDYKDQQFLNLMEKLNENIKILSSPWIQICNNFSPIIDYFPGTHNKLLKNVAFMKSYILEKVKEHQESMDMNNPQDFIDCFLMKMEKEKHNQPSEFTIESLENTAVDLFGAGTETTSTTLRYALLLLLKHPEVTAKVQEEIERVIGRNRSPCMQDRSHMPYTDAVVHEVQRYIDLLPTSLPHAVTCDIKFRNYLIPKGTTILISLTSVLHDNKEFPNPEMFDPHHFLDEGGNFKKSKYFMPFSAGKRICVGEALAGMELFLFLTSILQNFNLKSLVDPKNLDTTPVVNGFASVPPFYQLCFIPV
T1 sequence (P33261 whole entry): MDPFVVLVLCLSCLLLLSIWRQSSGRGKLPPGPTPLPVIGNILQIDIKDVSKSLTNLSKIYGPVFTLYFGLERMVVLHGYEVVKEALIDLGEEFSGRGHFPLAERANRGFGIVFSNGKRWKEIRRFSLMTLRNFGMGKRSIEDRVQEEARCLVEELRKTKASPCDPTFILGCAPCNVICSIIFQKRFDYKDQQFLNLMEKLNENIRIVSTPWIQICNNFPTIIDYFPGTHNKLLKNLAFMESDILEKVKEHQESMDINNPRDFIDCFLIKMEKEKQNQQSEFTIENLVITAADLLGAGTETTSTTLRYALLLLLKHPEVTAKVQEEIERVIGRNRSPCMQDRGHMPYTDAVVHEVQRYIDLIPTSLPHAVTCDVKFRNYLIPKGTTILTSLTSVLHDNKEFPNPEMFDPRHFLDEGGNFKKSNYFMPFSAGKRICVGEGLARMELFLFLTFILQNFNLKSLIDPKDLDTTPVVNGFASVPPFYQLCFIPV
Sequence of GLP-1 receptor (P43220 24-463): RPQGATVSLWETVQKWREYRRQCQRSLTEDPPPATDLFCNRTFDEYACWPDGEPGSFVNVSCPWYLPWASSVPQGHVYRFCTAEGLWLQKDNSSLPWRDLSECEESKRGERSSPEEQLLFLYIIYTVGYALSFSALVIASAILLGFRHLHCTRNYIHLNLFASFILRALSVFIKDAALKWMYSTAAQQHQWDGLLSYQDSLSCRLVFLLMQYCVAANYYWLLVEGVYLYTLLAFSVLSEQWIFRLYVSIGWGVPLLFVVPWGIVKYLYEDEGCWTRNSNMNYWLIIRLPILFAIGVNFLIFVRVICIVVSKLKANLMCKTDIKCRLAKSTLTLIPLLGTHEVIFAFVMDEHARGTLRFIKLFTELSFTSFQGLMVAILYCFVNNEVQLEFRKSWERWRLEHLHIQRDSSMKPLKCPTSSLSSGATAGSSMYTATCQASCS
T3 sequence (P08684 whole entry): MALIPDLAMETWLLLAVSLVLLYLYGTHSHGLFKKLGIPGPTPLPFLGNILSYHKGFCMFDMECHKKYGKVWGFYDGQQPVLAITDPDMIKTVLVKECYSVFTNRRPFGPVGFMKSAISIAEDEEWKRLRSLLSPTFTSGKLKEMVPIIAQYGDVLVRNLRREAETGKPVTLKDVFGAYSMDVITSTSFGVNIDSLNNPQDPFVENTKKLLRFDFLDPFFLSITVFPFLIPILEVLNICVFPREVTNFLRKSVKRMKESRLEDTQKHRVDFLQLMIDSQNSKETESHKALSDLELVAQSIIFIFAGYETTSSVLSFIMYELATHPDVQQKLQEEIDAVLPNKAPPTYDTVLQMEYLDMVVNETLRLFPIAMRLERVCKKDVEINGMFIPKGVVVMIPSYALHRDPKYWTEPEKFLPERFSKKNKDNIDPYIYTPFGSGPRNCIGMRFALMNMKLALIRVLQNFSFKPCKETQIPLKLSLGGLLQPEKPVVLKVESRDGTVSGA

Turning to `C[C@]1(c2ccc(C#N)cc2F)Oc2cccc(C3=CCN(Cc4nc5sc(C(=O)O)cc5n4C[C@@H]4CCO4)CC3)c2O1` [Compound 011A], at GLP-1 receptor, the EC50 was 0.00033 µM.
On the same count and under the same terms, next, `C[C@]1(c2ccc(C#N)cc2F)Oc2cccc(C3=CCN(Cc4nc5cc(C(=O)O)sc5n4C[C@@H]4CCO4)CC3)c2O1` [Compound 011B]: 0.00152 µM.
The compound `CC1(c2ccc(Cl)cc2F)Oc2cccc(N3CCN(Cc4nc5sc(C(=O)O)cc5n4CC4CCO4)CC3)c2O1` (single isomer, unassigned) [Compound 005A] gave an EC50 on GLP-1 receptor of 0.00015 µM. Also, on CYP2C19 [1], the “Time-dependent inhibition (Yes or No)” value is “No”. In addition, the IC50 was over 50 µM at CYP2C19 [1] (30 min pre-incubation with NADPH); 44.3 µM against CYP2C19 [1] (30 min pre-incubation without NADPH); 30.8 µM at CYP2C9; over 50 µM against CYP3A4; over 50 µM against CYP1A2; over 50 µM on CYP2C19 [2]. The compound further showed an IC50 at CYP2D6 of over 50 µM.
For the compound `CC1(c2ccc(Cl)cc2F)Oc2cccc(C3CCN(Cc4nc5sc(C(=O)O)cc5n4C[C@@H]4CCO4)CC3)c2O1` (single isomer, unassigned) [Compound 004], the half-life in series [3] (cynomolgus monkey, plasma) was 3.94 h. The same compound came in with a Cmax in series [3] (cynomolgus monkey, plasma) of 132 nM. In addition, the “Oral DNAUC” value in series [3] (DNAUC = AUCPO/Dose) worked out at 1056 nM · h/mpk. In addition, on GLP-1 receptor, the EC50 was 0.0002 µM. Further, the IC50 is 31.9 µM at CYP2C9; 40.8 µM against CYP3A4; 43.7 µM on CYP1A2; 23.6 µM against CYP2C19 [2]; over 50 µM against CYP2D6.
On GLP-1 receptor, `CC1(c2ccc(Cl)cc2F)Oc2cccc(C3CCN(Cc4nc5sc(C(=O)O)c(F)c5n4C[C@@H]4CCO4)CC3)c2O1` (single isomer, unassigned) [Compound 006] gave an EC50 of 0.00039 µM. The IC50 was 21.6 µM on CYP2C9; 48.7 µM at CYP3A4; 38.8 µM against CYP1A2; over 50 µM on CYP2C19 [2]; over 50 µM against CYP2D6.

As usually defined, the EC50 is the concentration needed to bring the measured effect to its halfway point. In general, IC50 refers to the midpoint of a concentration-inhibition curve. By half-life is commonly meant how long it takes for the measured level to halve. Usually Cmax stands for the highest concentration seen after dosing.
